≈ marks a conversion by molar mass, not a printed value. Where a SMILES comes first, the peptide text is derived from it. Bridges are numbered along the chain shown (N, C = ends). Roman numbers before positions name the chains, in order. [ ]: non-standard residue; d: D form. The star is where a group is joined. Thr(ol) = C[C@@H](O)[C@H](N)CO; Tle = CC(C)(C)[C@H](N)C(=O)O; Hiv = CC(C)[C@H](O)C(=O)O; Isovaleryl = CC(C)CC(=O)*; dDab = NCC[C@@H](N)C(=O)O; hCys = N[C@@H](CCS)C(=O)O; hSer = N[C@@H](CCO)C(=O)O; NHCH(CH2OH)2 = OCC(CO)N*; Orn = NCCC[C@H](N)C(=O)O; Dab = NCC[C@H](N)C(=O)O; Dap = NC[C@H](N)C(=O)O; NHCH2CH2OH = OCCN*
Key:
Type in all cases: cell-based
[1] = test system: human red blood cells (hRBC); assay: Hemolysis; conditions: red cells of human, 1 h, 200
Method in brief: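 Percent lysis of human red cells was derived from OD540 of the supernatant, referenced to 2% Triton X-100, after a 1 h, 37° C incubation of 20% (v/v) cells with 200 μg/mL peptide.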

[2] = test system: Pseudomonas aeruginosa ATCC 27853; conditions: ATCC 27853
Method in brief: (§1)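 Cation-adjusted MH-II broth, 0.002% polysorbate 80, inoculum near 10^6 CFU/mL. MIC read visually after 18-20 h, 35° C; units μg/mL.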

[3] = test system: Escherichia coli 926415; conditions: 926415
Method in brief: as §1

[4] = test system: Acinetobacter baumannii 872842; conditions: 872842
Method in brief: as §1

[5] = test system: Enterobacter cloacae 848840; conditions: 848840
Method in brief: as §1

[6] = test system: Escherichia coli ATCC 25922; conditions: ATCC 25922
Method in brief: as §1

[7] = test system: Acinetobacter baumannii DSM 30008; conditions: DSM 30008
Method in brief: as §1

[8] = test system: Klebsiella pneumoniae SSI #3010; conditions: SSI #3010
Method in brief: as §1

[9] = test system: Klebsiella pneumoniae 968733; conditions: 968733
Method in brief: as §1

| SMILES | Hemolysis at 200 μg/mL [1] [%] | MIC [2] [mg/L] | MIC [3] [mg/L] | MIC [4] [mg/L] | MIC [5] [mg/L] | MIC [6] [mg/L] | MIC [7] [mg/L] | MIC [8] [mg/L] | MIC [9] [mg/L] | Pseudomonas aeruginosa ATCC 27853 MIC [2] [mg/L] | Escherichia coli ATCC 25922 MIC [6] [mg/L] | Acinetobacter baumannii DSM 30008 MIC [7] [mg/L] | Klebsiella pneumoniae SSI #3010 MIC [8] [mg/L] |
| --- | --- | --- | --- | --- | --- | --- | --- | --- | --- | --- | --- | --- | --- |
| CC(C)C[C@@H]1NC(=O)[C@@H](CC(C)C)NC(=O)[C@H](CCN)NC(=O)[C@@H](NC(=O)[C@H](CN)NC(=O)[C@@H](NC(=O)[C@H](CCN)NC(=O)CC[C@@H]2NC(=O)[C@@H](CCN)NC(=O)CNC(=O)[C@H](CCN)NC(=O)[C@H](Cc3ccc(O)cc3)NC(=O)[C@@H](NC(=O)[C@@H](O)C(C)C)CSSC[C@@H](C(=O)NC(CO)CO)NC(=O)[C@H](C(C)(C)C)NC(=O)[C@H](CO)NC(=O)[C@H](Cc3c[nH]c4ccccc34)NC2=O)[C@@H](C)O)CCNC(=O)[C@H]([C@@H](C)O)NC(=O)[C@H](CCN)NC(=O)[C@H](CCN)NC1=O [Ex. 174] (I: H-[Hiv]CY[Dab]G[dDab]EWS[Tle]C-{NHCH(CH2OH)2} / II: [Dab]T[Dap][Dab][Dab][dL]L[Dab][Dab]T; disulfide I:2-I:11; amide I:7-II:N; lactam II:4-II:C) | <1 | 0.125 (≈ 0.0537 µM) | 0.125 (≈ 0.0537 µM) | 0.125 (≈ 0.0537 µM) | 0.25 (≈ 0.107 µM) | 0.0625 (≈ 0.0268 µM) | 0.0625 (≈ 0.0268 µM) | 0.0625 (≈ 0.0268 µM) | 0.25 (≈ 0.107 µM) | – | – | – | – |
| CC(=O)N[C@H](C(=O)N[C@H]1CSSC[C@@H](C(=O)N[C@@H](C)C(=O)N[C@@H](CO)C(N)=O)NC(=O)[C@H](C(C)C)NC(=O)[C@H](CO)NC(=O)[C@H](Cc2c[nH]c3ccccc23)NC(=O)[C@H](CO)NC(=O)[C@@H](CCN)NC(=O)[C@H](CCC(=O)N[C@@H](CCN)C(=O)N[C@H](C(=O)N[C@@H](CN)C(=O)N[C@H]2CCNC(=O)[C@H]([C@@H](C)O)NC(=O)[C@H](CCN)NC(=O)[C@H](CCN)NC(=O)[C@H](CC(C)C)NC(=O)[C@@H](CC(C)C)NC(=O)[C@H](CCN)NC2=O)[C@@H](C)O)NC(=O)[C@H](CCN)NC(=O)[C@H](Cc2ccc(O)cc2)NC1=O)C(C)C [Ex. 367] (I: Ac-VCY[Dab]E[dDab]SWSVCAS-NH2 / II: [Dab]T[Dap][Dab][Dab][dL]L[Dab][Dab]T; disulfide I:2-I:11; amide I:5-II:N; lactam II:4-II:C) | <1 | – | 0.0625 (≈ 0.0253 µM) | 0.03125 (≈ 0.0127 µM) | 0.0625 (≈ 0.0253 µM) | – | – | – | 0.0625 (≈ 0.0253 µM) | 0.0625 | 0.01562 | 0.007813 | 0.03125 |
| CC(C)C[C@@H]1NC(=O)[C@@H](CC(C)C)NC(=O)[C@H](CCN)NC(=O)[C@@H](NC(=O)[C@H](CCN)NC(=O)[C@@H](NC(=O)[C@H](CCN)NC(=O)CC[C@@H]2NC(=O)[C@H](CCN)NC(=O)[C@H](Cc3ccc(O)cc3)NC(=O)[C@@H](NC(=O)[C@@H](O)C(C)C)CSSC[C@@H](C(=O)NCCO)NC(=O)[C@H](C(C)(C)C)NC(=O)[C@H](CO)NC(=O)[C@H](Cc3c[nH]c4ccccc34)NC(=O)[C@H](CCO)NC(=O)[C@@H](CCN)NC2=O)[C@@H](C)O)CCNC(=O)[C@H]([C@@H](C)O)NC(=O)[C@H](CCN)NC(=O)[C@H](CCN)NC1=O [Ex. 72] (I: H-[Hiv]CY[Dab]E[dDab][hSer]WS[Tle]C-NHCH2CH2OH / II: [Dab]T[Dab][Dab][Dab][dL]L[Dab][Dab]T; disulfide I:2-I:11; amide I:5-II:N; lactam II:4-II:C) | <1 | 0.125 (≈ 0.053 µM) | 0.125 (≈ 0.053 µM) | 0.0625 (≈ 0.0265 µM) | 0.25 (≈ 0.106 µM) | 0.0625 (≈ 0.0265 µM) | 0.0625 (≈ 0.0265 µM) | 0.125 (≈ 0.053 µM) | 0.125 (≈ 0.053 µM) | – | – | – | – |
| CC(C)C[C@@H]1NC(=O)[C@@H](CC(C)C)NC(=O)[C@H](CCN)NC(=O)[C@@H](NC(=O)[C@H](CCN)NC(=O)[C@@H](NC(=O)[C@H](CCN)NC(=O)CC[C@@H]2NC(=O)[C@H](CN)NC(=O)[C@H](Cc3ccc(O)cc3)NC(=O)[C@@H](NC(=O)[C@@H](O)C(C)C)CSSC[C@@H](C(=O)N[C@H](CO)[C@@H](C)O)NC(=O)[C@H](C(C)(C)C)NC(=O)[C@H](CO)NC(=O)[C@H](Cc3c[nH]c4ccccc34)NC(=O)[C@H](CCO)NC(=O)[C@@H](CCN)NC2=O)[C@@H](C)O)CCNC(=O)[C@H]([C@@H](C)O)NC(=O)[C@H](CCN)NC(=O)[C@H](CCN)NC1=O [Ex. 79] (I: H-[Hiv]CY[Dap]E[dDab][hSer]WS[Tle]C[Thr(ol)] / II: [Dab]T[Dab][Dab][Dab][dL]L[Dab][Dab]T; disulfide I:2-I:11; amide I:5-II:N; lactam II:4-II:C) | <1 | 0.125 (≈ 0.0524 µM) | 0.0625 (≈ 0.0262 µM) | 0.0625 (≈ 0.0262 µM) | 0.0625 (≈ 0.0262 µM) | 0.0625 (≈ 0.0262 µM) | 0.03125 (≈ 0.0131 µM) | 0.0625 (≈ 0.0262 µM) | 0.0625 (≈ 0.0262 µM) | – | – | – | – |
| CC(C)CC(=O)N[C@H]1CSSC[C@@H](C(=O)NC(CO)CO)NC(=O)[C@H](C(C)(C)C)NC(=O)[C@H](CO)NC(=O)[C@H](Cc2c[nH]c3ccccc23)NC(=O)[C@H]([C@@H](C)O)NC(=O)[C@@H](CCN)NC(=O)[C@H](CCC(=O)N[C@@H](CCN)C(=O)N[C@H](C(=O)N[C@@H](CCN)C(=O)N[C@H]2CCNC(=O)[C@H]([C@@H](C)O)NC(=O)[C@H](CCN)NC(=O)[C@H](CCN)NC(=O)[C@H](CC(C)C)NC(=O)[C@@H](CC(C)C)NC(=O)[C@H](CCN)NC2=O)[C@@H](C)O)NC(=O)[C@H](CN)NC(=O)[C@H](Cc2ccc(O)cc2)NC1=O [Example 5] (I: Isovaleryl-CY[Dap]E[dDab]TWS[Tle]C-{NHCH(CH2OH)2} / II: [Dab]T[Dab][Dab][Dab][dL]L[Dab][Dab]T; disulfide I:1-I:10; amide I:4-II:N; lactam II:4-II:C) | <1 | 0.125 (≈ 0.053 µM) | 0.125 (≈ 0.053 µM) | 0.125 (≈ 0.053 µM) | 0.125 (≈ 0.053 µM) | 0.0625 (≈ 0.0265 µM) | 0.0625 (≈ 0.0265 µM) | 0.125 (≈ 0.053 µM) | 0.25 (≈ 0.106 µM) | – | – | – | – |
| CC(=O)N[C@H](C(=O)N[C@H]1CCCNC(=O)[C@@H]([C@H](C)O)NC(=O)[C@H](C(C)(C)C)NC(=O)[C@H](CO)NC(=O)[C@H](Cc2c[nH]c3ccccc23)NC(=O)[C@H](CCN)NC(=O)[C@@H](CCN)NC(=O)[C@H](CCC(=O)N[C@@H](CCN)C(=O)N[C@H](C(=O)N[C@@H](CN)C(=O)N[C@H]2CCNC(=O)[C@H]([C@@H](C)O)NC(=O)[C@H](CCN)NC(=O)[C@H](CCN)NC(=O)[C@H](CC(C)C)NC(=O)[C@@H](CC(C)C)NC(=O)[C@H](CCN)NC2=O)[C@@H](C)O)NC(=O)[C@H](CO)NC(=O)[C@H](Cc2ccc(O)cc2)NC1=O)C(C)C [Ex. 25] (I: Ac-V[Orn]YSE[dDab][Dab]WS[Tle][dT] / II: [Dab]T[Dap][Dab][Dab][dL]L[Dab][Dab]T; lactam I:2-I:C, II:4-II:C; amide I:5-II:N) | <1 | 0.25 (≈ 0.108 µM) | 0.25 (≈ 0.108 µM) | 0.25 (≈ 0.108 µM) | 0.125 (≈ 0.0539 µM) | 0.0625 (≈ 0.0269 µM) | 0.0625 (≈ 0.0269 µM) | 0.125 (≈ 0.0539 µM) | 0.25 (≈ 0.108 µM) | – | – | – | – |
| CC(=O)N[C@H](C(=O)N[C@H]1CCSSC[C@@H](C(=O)N[C@@H](CO)C(N)=O)NC(=O)[C@H](C(C)(C)C)NC(=O)[C@H](CO)NC(=O)[C@H](Cc2c[nH]c3ccccc23)NC(=O)[C@H](CO)NC(=O)[C@@H](CCN)NC(=O)[C@H](CCC(=O)N[C@@H](CCN)C(=O)N[C@H](C(=O)N[C@@H](CN)C(=O)N[C@H]2CCNC(=O)[C@H]([C@@H](C)O)NC(=O)[C@H](CCN)NC(=O)[C@H](CCN)NC(=O)[C@H](CC(C)C)NC(=O)[C@@H](CC(C)C)NC(=O)[C@H](CCN)NC2=O)[C@@H](C)O)NC(=O)[C@H](CN)NC(=O)[C@H](Cc2ccc(O)cc2)NC1=O)C(C)C [Ex. 121] (I: Ac-V[hCys]Y[Dap]E[dDab]SWS[Tle]CS-NH2 / II: [Dab]T[Dap][Dab][Dab][dL]L[Dab][Dab]T; disulfide I:2-I:11; amide I:5-II:N; lactam II:4-II:C) | <1 | 0.125 (≈ 0.0518 µM) | 0.125 (≈ 0.0518 µM) | 0.0625 (≈ 0.0259 µM) | 0.125 (≈ 0.0518 µM) | 0.0625 (≈ 0.0259 µM) | 0.0625 (≈ 0.0259 µM) | 0.125 (≈ 0.0518 µM) | 0.25 (≈ 0.104 µM) | – | – | – | – |

From patent publication US11629171B2, “Beta-hairpin peptidomimetics” (POLYPHOR AG, priority 2017, dated 2023)
